Assay results: ChEMBL document CHEMBL3856256, “The discovery and preclinical characterization of 6-chloro-N-(2-(4,4-difluoropiperidin-1-yl)-2-(2-(trifluoromethyl)pyrimidin-5-yl)ethyl)quinoline-5-carboxamide based P2X7 antagonists” (Bioorg Med Chem Lett, 2016)
Blank lines part the entries; values can stand above or below the compound they belong to. Active and inactive are the calls of the source. The calls are words filed in the database; no cut-off is given here.

Columns and labels:
[1] = target: T1, P2X purinoceptor 7 (Homo sapiens, UniProt Q99572); assay: Antagonist activity at P2X7 receptor in human whole blood assessed as reduction in LPS/BzATP-induced IL-1beta release preincubated with LPS-stimulated cells for 30 mins followed by BzATP addition measured after 1.5 hrs by ELISA; format: tissue-based
T1 sequence (Q99572 whole entry): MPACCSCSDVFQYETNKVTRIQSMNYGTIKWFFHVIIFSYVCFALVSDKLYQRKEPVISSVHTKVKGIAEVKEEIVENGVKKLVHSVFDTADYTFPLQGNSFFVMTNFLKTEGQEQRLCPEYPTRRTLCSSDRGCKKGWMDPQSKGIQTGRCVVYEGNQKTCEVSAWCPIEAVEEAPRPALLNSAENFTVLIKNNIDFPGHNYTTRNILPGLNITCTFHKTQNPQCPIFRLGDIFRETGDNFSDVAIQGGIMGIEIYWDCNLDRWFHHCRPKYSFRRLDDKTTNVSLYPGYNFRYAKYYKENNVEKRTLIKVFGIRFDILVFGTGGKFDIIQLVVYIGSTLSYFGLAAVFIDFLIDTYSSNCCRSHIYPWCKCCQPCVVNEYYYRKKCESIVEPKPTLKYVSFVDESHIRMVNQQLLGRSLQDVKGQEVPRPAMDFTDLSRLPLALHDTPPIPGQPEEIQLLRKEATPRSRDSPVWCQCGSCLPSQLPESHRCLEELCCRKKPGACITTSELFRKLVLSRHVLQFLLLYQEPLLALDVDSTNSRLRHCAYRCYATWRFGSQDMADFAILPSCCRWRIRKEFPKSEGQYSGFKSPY

[2] = target: T2, P2X purinoceptor 7 (Mus musculus, UniProt Q9Z1M0); assay: Antagonist activity at P2X7 receptor in C57/bl6 mouse whole blood assessed as reduction in LPS/BzATP-induced IL-1beta release preincubated with LPS-stimulated cells for 30 mins followed by BzATP addition measured after 1.5 hrs by ELISA; format: tissue-based
T2 sequence (Q9Z1M0 whole entry): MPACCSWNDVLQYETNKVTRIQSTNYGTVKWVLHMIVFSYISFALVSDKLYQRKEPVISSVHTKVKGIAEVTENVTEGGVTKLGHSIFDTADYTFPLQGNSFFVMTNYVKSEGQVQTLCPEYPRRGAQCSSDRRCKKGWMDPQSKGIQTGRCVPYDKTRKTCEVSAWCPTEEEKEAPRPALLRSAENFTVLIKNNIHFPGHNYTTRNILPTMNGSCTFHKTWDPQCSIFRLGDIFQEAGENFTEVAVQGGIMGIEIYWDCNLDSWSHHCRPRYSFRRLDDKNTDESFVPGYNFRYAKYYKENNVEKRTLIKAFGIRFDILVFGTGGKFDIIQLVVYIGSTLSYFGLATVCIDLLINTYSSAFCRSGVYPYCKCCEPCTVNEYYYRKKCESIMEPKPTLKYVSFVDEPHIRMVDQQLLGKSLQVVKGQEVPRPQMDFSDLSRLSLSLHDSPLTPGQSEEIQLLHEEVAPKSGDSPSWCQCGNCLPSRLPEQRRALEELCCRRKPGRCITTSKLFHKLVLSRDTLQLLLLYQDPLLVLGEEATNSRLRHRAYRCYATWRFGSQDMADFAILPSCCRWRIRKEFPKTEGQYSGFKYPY

[3] = target: T1, P2X purinoceptor 7; assay: Antagonist activity at human P2X7 receptor assessed as reduction in calcium flux by FLIPR assay
[4] = target: T2, P2X purinoceptor 7; assay: Antagonist activity at mouse P2X7 receptor assessed as reduction in calcium flux by FLIPR calcium flux assay
[5] = Plasma concentration in mouse at 50 mg/kg, po measured at 4 hrs; format: ADME, organism-based
[6] = tested on: Mus musculus; assay: Ex vivo inhibition of P2X7 receptor in C57/bl6 mouse assessed as plasma concentration required to reduce LPS/BzATP-induced IL-1beta release at 50 mg/kg, po measured 8 hrs post dose; format: functional, organism-based
[7] = tested on: Mus musculus; assay: Ex vivo inhibition of P2X7 receptor in C57/bl6 mouse assessed as plasma concentration required to reduce LPS/BzATP-induced IL-1beta release at 5 mg/kg, po measured 2 hrs post dose; format: functional, organism-based
[8] = Drug uptake in mouse brain at 50 mg/kg, po measured at 4 hrs; format: ADME, organism-based; details: read-out: Drug uptake
[9] = Drug uptake in C57/bl6 mouse plasma at 50 mg/kg, po after 24 hrs; format: ADME, organism-based; details: in vivo, BLD = below limit of detection
[10] = tested on: Mus musculus; assay: Ex vivo inhibition of P2X7 receptor in C57/bl6 mouse assessed as plasma concentration required to reduce LPS/BzATP-induced IL-1beta release at 15 mg/kg, po measured 2 hrs post dose; format: functional, organism-based
[11] = tested on: Mus musculus; assay: Ex vivo inhibition of P2X7 receptor in C57/bl6 mouse assessed as plasma concentration required to reduce LPS/BzATP-induced IL-1beta release at 50 mg/kg, po measured 2 hrs post dose; format: functional, organism-based
[12] = tested on: Mus musculus; assay: Ex vivo inhibition of P2X7 receptor in po dosed C57/bl6 mouse assessed as reduction in LPS/BzATP-induced IL-1beta release in blood measured 2 hrs post dose; format: functional, organism-based
[13] = tested on: Mus musculus; assay: Ex vivo inhibition of P2X7 receptor in C57/bl6 mouse assessed as plasma concentration required to reduce LPS/BzATP-induced IL-1beta release at 50 mg/kg, po measured 4 hrs post dose; format: functional, organism-based
[14] = tested on: Mus musculus; assay: Antiarthritic activity in DBA mouse assessed as decrease in collagen/CFA-induced arthritic score at 0.3 mg/kg, po qd administered on day 21 to 34 post collagen/CFA challenge measured on day 35; format: functional, organism-based
[15] = tested on: Mus musculus; assay: Antiarthritic activity in DBA mouse assessed as decrease in collagen/CFA-induced arthritic score at 30 mg/kg, ip twice per week administered on day 21 post collagen/CFA challenge; format: functional, organism-based

SMILES: CNc1ccc2c(C(=O)NCC(c3cnc(C(F)(F)F)nc3)N3CCC(F)(F)CC3)c(Cl)ccc2n1 (configuration not stated)
- IC50 [3]: 82 nM
- IC50 [4]: 305 nM

SMILES: O=C(NCC(c1cnc(C(F)(F)F)nc1)N1CCC(F)(F)CC1)c1c(Cl)ccc2nc(NCCO)ccc12 (configuration not stated)
- IC50 [3]: 78 nM

SMILES: C[C@@H]1C[C@H]2[C@@H]3CCC4=CC(=O)C=C[C@]4(C)[C@@]3(F)[C@@H](O)C[C@]2(C)[C@@]1(O)C(=O)CO
- Activity [14]: Active

SMILES: CN1CCN(c2ccc3c(C(=O)NCC(c4cnc(C(F)(F)F)nc4)N4CCC(F)(F)CC4)c(Cl)ccc3n2)CC1 (configuration not stated)
- IC50 [3]: 85 nM
- IC50 [4]: 486 nM

SMILES: CN(Cc1cnc2nc(N)nc(N)c2n1)c1ccc(C(=O)N[C@@H](CCC(=O)O)C(=O)O)cc1
- Activity [15]: Active

SMILES: O=C(NCC(c1cnc(C(F)(F)F)nc1)N1CCC(F)(F)CC1)c1c(Cl)ccc2nc(N3CCC(O)CC3)ccc12 (configuration not stated)
- IC50 [3]: 120 nM

SMILES: O=C(NCC(c1cnc(C(F)(F)F)nc1)N1CCC(F)(F)CC1)c1c(Cl)ccc2nc(N3CC[C@H](O)C3)ccc12 (some centres not stated)
- IC50 [3]: 151 nM

Continued, in another order:

- IC50 [1]: 141 nM
- IC50 [2]: 631 nM
- IC50 [3]: 64 nM
- IC50 [4]: 123 nM
SMILES: O=C(NCC(c1cnc(C(F)(F)F)nc1)N1CCC(F)(F)CC1)c1c(Cl)ccc2nc(NC3CC3)ccc12 (configuration not stated)

- concentration at 4 h [5]: 6420 ng/mL
- IC50 [1]: 87 nM
- IC50 [2]: 316 nM
- concentration at 4 h [8]: 21 ng/mL
- Cp [9]: Bld
- IC50 [3]: 35 nM
- IC50 [4]: 80 nM
- inhibition [12]: Dose-dependent effect
SMILES: O=C(NCC(c1cnc(C(F)(F)F)nc1)N1CCC(F)(F)CC1)c1c(Cl)ccc2nc(N3CC[C@@H](O)C3)ccc12 (some centres not stated)
- Cp [6]: 4 µM
- Cp [7]: 1.6 µM
- Cp [10]: 8.9 µM
- Cp [11]: 23.4 µM
- Cp [13]: 11.7 µM

- IC50 [3]: 9 nM
- IC50 [4]: 1090 nM
SMILES: Nc1ccc2c(C(=O)NCC(c3cnc(C(F)(F)F)nc3)N3CCC(F)(F)CC3)c(Cl)ccc2n1 (configuration not stated)

- IC50 [1]: 376 nM
- IC50 [2]: 631 nM
- IC50 [3]: 25 nM
- IC50 [4]: 103 nM
SMILES: O=C(NCC(c1cnc(C(F)(F)F)nc1)N1CCC(F)(F)CC1)c1c(Cl)ccc2nc(N3CCOCC3)ccc12 (configuration not stated)
